Where a SMILES comes first, the peptide text is derived from it. Primed or numbered codes have the meaning given here. The star is where a group is joined. PEG12′ = C-terminal PEG12 polyethylene glycol (PEGylation) moiety, followed by a C-terminal amide; 5FAM = O=C1OC2(c3ccc(O)cc3Oc3cc(O)ccc32)c2ccc(C(=O)*)cc21
What was measured:
[1] = test system: human microvessels of healthy donors; assay: Mechanism of FMD (L-NAME / PEG-Catalase) in microvessels from healthy (non-CAD) donors
Experimental: (§1) Live human microvessels were dissected from adipose from individuals with clinically confirmed coronary artery disease (CAD). Vessels were treated with nucXTERT in the presence of either vehicle or L-NAME or PEG-Catalase. Response to pressure gradient (flow) stimulus was evaluated. Microvessels from the adipose of healthy human donors was treated with either vehicle or mitoXTERT with or without NG-nitro-L-arginine methyl ester (L-NAME) or PEG-Catalase. The ability of the vessels to dilate in response to a pressure gradient (flow) was assessed.
FIGS. 7A-7C show dose titration of PEGylated nucXTERT-E in isolated vessel studies. nucXTERT with S→E substitution was PEGylated at the C-terminus to increase bio stability and cell permeability. Effective doses from 10 μM to 1 nM were tested. PEGylated peptide could be titrated down to 1 nM with vascular protective effects. […] N=3-4.
(§2) Dependence of vessels on NO versus hydrogen peroxide signaling in dilation was assessed using the pharmacologic agents Nw-nitro-L-arginine methyl ester (L-NAME; 100 μmol/L) and polyethylene glycol-catalase (PEG-catalase; 500 U/mL), respectively, where described.

[2] = test system: human microvessels; assay: Flow-mediated dilation (FMD) of isolated human microvessels with or without ANG II challenge; settings: for protection of flow-mediated vasodilation from ANG II: overnight pre-treatment, ANG II 10 nM 30 min; for baseline vessel constriction, % of maximum diameter: after 10 minutes of ET-1 treatment
Experimental: (§3) Microvessels were dissected from surgical discard tissues, predominantly consisting of adipose. Only vessels with a diameter of less than 300 micrometers were selected for further study. All microvessels were obtained from discarded surgical tissues, in accordance with an Institutional Review Board approved protocols (PRO00000114, PRO00010828, PRO00001094) at the Medical College of Wisconsin, Milwaukee, Wis.
(§4) After dissection, vessels were incubated overnight in complete endothelial cell media, supplemented with 5% fetal bovine serum (Lonza) with or without peptides as described. Following overnight incubation, peptides were washed out and vessels were cannulated and transferred to physiological salt solution. A video microscopy setup enabled monitoring of vessels in real time. Vessels were pre-constricted with endothelin-1 (ET-1) at a dose range of 0.1-1 nM. Only vessels capable of constricting at least 20% from baseline were included in the study. Flow-mediated dilation (FMD) and Ach-induced dilation were then evaluated, followed by evaluation of endothelium-independent dilation to papaverin. After establishing this baseline, vessels were pre-constricted again with ET-1 and dilator curves repeated in the presence of Angiotensin II (ANG II), as described below.
FMD was evaluated by adjusting the heights of two reservoirs in equal and opposite directions to generate flow by altering vessel central pressure. After each change in pressure gradient, vessel diameter was measured and assessed using video microscopy. Prior to measuring FMD, all vessels studied were pre-constricted using endothelin-1.
(§5) Baseline vessel parameters, including ability to dilate in response to FMD, as described above were assessed. Following assessment, vessels were treated with ANG II at a final concentration of 10 nM for 30 minutes before FMD and response to ACh was re-assessed.

[3] = test system: human microvessels; assay: ACh-induced dilation of isolated human microvessels with or without ANG II challenge; settings: for protection of ACh-induced vasodilation from ANG II: overnight pre-treatment, ANG II 10 nM 30 min
Experimental: as §3, §4, §5

[4] = test system: human microvessels; assay: Uptake of 5-FAM labeled peptide by isolated human microvessels (microscopy); settings: 10 uM, 8 h
Experimental: (§6) FIGS. 2A-2B. (A) Dissected human microvessels are shown. The top panels are brightfield images, while the bottom three panels are images of the same vessels under laser excitation with a filter to visualize emission from 5-FAM. Vessels were treated with 5-FAM labeled peptide (nucXTERT-W) at a 10 uM concentration for 8 hours (h), or left untreated (control). (B) H1299 non-small cell lung carcinoma cells were seeded onto slides and treated with 0, 50, or 100 μM 5-FAM labeled nucXTERT-W for 8 h. DAPI=blue; 5-FAM labeled peptide=green.
Peptide synthesis was conducted by GeneMed Synthesis (San Antonio, Tex.). All peptide sequences were verified by mass spectrometry, and were only used at a purity of greater than 95%. Lyophilized peptides were stored at −20 degrees Celsius. Given the charge properties of the peptides used in these studies, phosphate buffered saline (PBS) was selected as the solvent of choice to dissolve all peptides used. […]
One of the first hurdles that required consideration when evaluating the ability of novel peptides to alter telomerase localization is their ability to be internalized by living tissues. nucXTERT was labeled with 5-carboxyfluorescein (5-FAM). Isolated human microvessels incubated with the 5-FAM labeled peptide were analyzed by microscopy. […]

[5] = test system: H1299 non-small cell lung carcinoma cells; assay: Uptake of 5-FAM labeled peptide by H1299 cells (microscopy); format: cell-based, human; settings: 50 or 100 μM, 8 h
Experimental: as §6
The NCI-H1299 cell line was used for the cell culture experiments described in this manuscript. Cells were cultured in RPMI (Invitrogen) supplemented with 10% fetal bovine serum (Sigma).
One of the first hurdles that required consideration when evaluating the ability of novel peptides to alter telomerase localization is their ability to be internalized by living tissues. nucXTERT was labeled with 5-carboxyfluorescein (5-FAM). Isolated human microvessels incubated with the 5-FAM labeled peptide were analyzed by microscopy. Robust signal is present in vessels pulsed with the peptide, while vessels not treated with peptide have no signal. […] Since peptide is taken up by vessels, it was possible to study the effect of peptide treatment on vessel physiology, using human microvessels as described in the methods. […]

[6] = test system: ANG II induced endothelial dysfunction; assay: In vivo ANG II infusion model of hypertension and endothelial dysfunction; parameters: species or system mice
Experimental: Mice were treated with commonly used stressors to induce hypertension and endothelial dysfunction. The fast pressor dose of ANG II (1000 ng/kg/min) was infused via osmotic mini-pump for 14 days. A subgroup of animals was co-treated with nucXTERT (30 μg/day via osmotic mini-pump) in addition to ANG II, for the same duration and using the same delivery system. Curves were compared to historic controls (vehicle). […] Smooth muscle-dependent dilation in response to vasodilator papaverin was not effected (data not shown). * P<0.05 vs. Vehicle one way ANOVA RM, N=5).
To test in vivo effects of nucXTERT mice were treated with commonly used stress to induce hypertension and endothelial dysfunction. The fast pressor dose of ANG II (1000 ng/kg/min) was infused via osmotic minipump for 14 days. A subgroup of animals was co-treated with nucXTERT (30 μg/day via osmotic mini pump) in addition to ANG II, for the same duration and using the same delivery system. Curves were compared to historic controls (vehicle). […] Smooth muscle dependent dilation to papaverin was not effected (data not shown).

[7] = test system: human microvessels from individuals with coronary artery disease (CAD); assay: Mechanism of FMD (L-NAME / PEG-Catalase) in microvessels from donors with coronary artery disease; settings: vessels pretreated with peptide
Experimental: as §1, §2
At baseline, these vessels respond to vasodilatory stimuli through the use of H2O2 as a signaling mechanism to enable dilation. Treatment of vessels with PEG-Catalase, a scavenger of H2O2 effectively attenuates vasodilation. […] In vessels from subjects with CAD, H2O2 represents the dominant vasodilator.

[8] = 30 μg/day via osmotic mini pump, 14 days, ANG II 1000 ng/kg/min

Ac-CGGRRRGGEASRSLPLPKRPRR-peg12-amide (Ac-CGGRRRGGEASRSLPLPKRPRR-{PEG12′-NH2}) [PEGylated peptide, nucXTERT with S→E substitution PEGylated at the C-terminus]
mechanism of FMD in non-CAD vessels (L-NAME inhibitable) ([1]; non-CAD vessels): did not alter | lowest dose with vascular protective effects (dose titration) ([2]; doses from 10 μM to 1 nM tested): 1 nM | protection of flow-mediated vasodilation from ANG II [2]: protected against ANG II induced endothelial dysfunction

MPRAPRCRAVRSLLRSHYRE (listed as Homo sapiens) [mitoXTERT, decoy peptide containing regions of the telomerase MLS]
mechanism of dilation in healthy vessels ([1]; treated with peptide, with or without L-NAME or PEG-Catalase): from NO-mediated dilation to H2O2-dependent dilation | protection of ACh-induced vasodilation from ANG II [3]: no protection of the endothelium from ANG II stress | protection of flow-mediated vasodilation from ANG II [2]: no protection of the endothelium from ANG II stress

RRRGGAASRSLPLPKRPRR (phospho-deficient nucXTERT-A)
protection of ACh-induced vasodilation from ANG II [3]: does not protect vessels from attenuation of vasodilator capacity | baseline vessel constriction, % of maximum diameter [2]: 53±12% | protection of flow-mediated vasodilation from ANG II [2]: does not protect vessels from attenuation of vasodilator capacity

CC(C)C[C@H](NC(=O)[C@H](CO)NC(=O)[C@H](CCCNC(=N)N)NC(=O)[C@H](CO)NC(=O)[C@H](C)NC(=O)[C@H](CO)NC(=O)CNC(=O)CNC(=O)[C@H](CCCNC(=N)N)NC(=O)[C@H](CCCNC(=N)N)NC(=O)[C@H](CCCNC(=N)N)NC(=O)c1ccc2c(c1)C(=O)OC21c2ccc(O)cc2Oc2cc(O)ccc21)C(=O)N1CCC[C@H]1C(=O)N[C@@H](CC(C)C)C(=O)N1CCC[C@H]1C(=O)N[C@@H](CCCCN)C(=O)N[C@@H](CCCNC(=N)N)C(=O)N1CCC[C@H]1C(=O)N[C@@H](CCCNC(=N)N)C(=O)N[C@@H](CCCNC(=N)N)C(=O)O [5-FAM labeled peptide] (5FAM-RRRGGSASRSLPLPKRPRR-OH; N-terminus and C-terminus assumed)
5-FAM signal in vessels pulsed with peptide (uptake by living tissue) [4]: Robust signal | uptake of labeled peptide into cells [5]: effectively traffics into the cell

RRRGGSASRSLPLPKRPRR (listed as Homo sapiens) [nucXTERT]
FMD under ANG II [6, 8]: prevented onset of ANG II induced endothelial dysfunction | agonist (ACh) induced endothelium-dependent dilation under ANG II [6, 8]: prevented onset of ANG II induced endothelial dysfunction | smooth muscle dependent dilation to papaverin ([6]; data not shown): not effected | effect of PEG-Catalase on dilation responses in CAD vessels [7]: no longer inhibits dilation responses | main mechanism of FMD in CAD vessels [7]: NO is restored as the main mechanism of FMD | protection of ACh-induced vasodilation from ANG II [3]: not impacted by ANG II treatment | protection of flow-mediated vasodilation from ANG II [2]: not impacted by ANG II treatment

RRRGGEASRSLPLPKRPRR (phosphomimetic nucXTERT-E) [phosphomimetic containing a glutamic acid substitution at position 227]
protection of ACh-induced vasodilation from ANG II [3]: prevents ANG II-induced endothelial dysfunction | baseline vessel constriction, % of maximum diameter [2]: 48±18% | protection of flow-mediated vasodilation from ANG II [2]: prevents ANG II-induced endothelial dysfunction

C/C(=C\C(=O)Nc1ccccc1C(=O)O)c1ccc2ccccc2c1 [BIBR1532, reference compound]
vasodilation in response to acetylcholine ([3]; overnight treatment, no ANG II): effectively eliminates vasodilation in response to acetylcholine | vasodilation in response to flow stimulus ([2]; overnight treatment, no ANG II): continue to dilate in response to flow stimulus

Source: patent US10858397B2, “Peptide inhibitors of telomerase translocation and therapeutic uses thereof” (THE MEDICAL COLLEGE OF WISCONSIN, INC., priority 2015, dated 2020)
